The assay has as its target AMPA receptor. Briefly: displacement of [^3 H]-AMPA from its binding site on rat forebrain membranes. The note with it: 5 nmolar [^3 H]AMPA, 100 mmolar KSCN, 4° C., 1 hr. The procedure: A representative compound of this invention was evaluated in a standard pharmacological test procedure to determine its ability to displace [^3 H]-α-amino-3-hydroxy-5-methylisoxazole-4-propionic acid (AMPA) from its binding site on rat forebrain membranes as described in a modified assay by D. E. Murphy, E. W. Snowhill and M. Williams (Characterization of quisqualate recognition sites in rat brain tissue using DL-[^3 H]α-amino-3-hydroxy-5-methylisoxazole-4-propionic acid (AMPA) and a filtration assay, Neurochemical Research, Vol. 12, No.9, 1987, pp. 775-782). Briefly, rats were decapitated and their forebrains (whole brain minus brain stem and cerebella) were homogenized in a volume (ml) of ice cold 0.32M sucrose equivalent to 15 times the forebrain weight (gram). The homogenate was centrifuged at 1,000 g for 10 minutes and the supernatant was recentrifuged at 20,000 g for 20 min. The pellet was resuspended in ice-cold distilled water and centrifuged at 8,000 g for 20 min. The supernatant and buffy coat were centrifuged at 48,000 g for 10 min. The pellet was then resuspended in the original volume of ice-cold 50 mmolar TRIS HCl (pH 7.4) and centrifuged at 48,000 g for 10 min. The pellet was resuspended in 50 mmolar TRIS HCl containing 0.04% Triton X-100 and the homogenate was incubated at 37° C. for 30 min. The homogenate was then centrifuged at 48,000 g for 10 min. […]

`O=c1[nH]c2cc3no[n+]([O-])c3cc2[nH]c1=O` [Example 1, 1-Oxy-5H,8H-2-oxa-1,3,5,8-tetraaza-cyclopenta[b]naphthalene-6,7-dione]: the IC50 (as a rule, the concentration that inhibits the measured activity by half) came out at 7.6 µM.

The record behind these values is patent US5719153A, “5H,8H-2-oxa-1,3,5,8-tetraaza-cyclopenta[b]-naphthalene-6,7-diones” (American Home Products Corporation, priority 1996, dated 1998).
